# Tests used:
# Assay type in all cases: cell-based, human
# p53 phosphorylation = test: Immunoprecipitation of [32P]-labelled p53 from A549 cells; details: six hours, 100 nM dexamethasone or 300 nM ISIS 15534
# Experimental: Immunoprecipitation of p53 protein. A549 cells were cultured in 60 mm dishes until the cell cultures were about 80% confluent, washed with PBS and placed for 1 hour in phosphate-free DMEM containing 5% fetal bovine serum. The cell cultures were then treated with 100 nM dexamethasone or 300 nM ISIS 15521 or ISIS 15534 as described previously (Zuo et al. 1998), three dishes per group, and [^32 P] phosphate (0.2 mCi/ml) was added to the media. Six hours after treatment, the cells were collected, washed with ice-cold PBS and stored at -80° C. prior to analysis. […]
# Referring to FIGS. 2A-2C, Northern blot analysis of 549 cells following treatment with dexamethasone and/or ISIS 15534 is shown. […] After 24 hours, 20 μg of total RNA was prepared and analyzed for serine/threonine protein phosphatase 5 (PP5), p21^Waf1/Cip1 (p21), and serum/glucocorticoid inducible kinase (sgk) mRNA levels. […] Six hours later, the protein extracts were prepared, and changes in p53 phosphorylation were determined by immunoprecipitation, SDS-PAGE analysis, and visualized by autoradiography (Control, p53 from control cells; ISIS 15534, p53 from cells treated with 500 nM ISIS 15534; Dex, p53 from cells treated with 100 nM dexamethasone).Referring to FIG. 2E, a Western analysis of an Immobilon membrane produced by the transfer of protein from the SDS-PAGE gel and detected with an anti-p53 mouse monoclonal antibody is shown.
# [1] = system: serum/glucocorticoid inducible protein kinase (sgk) mRNA; test: Northern analysis of sgk mRNA; details: 24 hours
# Experimental: The cells were harvested, and total RNA was extracted with TRIzol® Reagent according to the methods of the manufacturer. Total RNA (20 μg) was fractionated on 1% agarose gels containing formaldehyde and transferred to DURLON-UV nylon membranes (Stratagene). Following UV cross-linking, the filters were hybridized with a [α^32 P]probe for human PP5. The human PP5 cDNA probe was generated from the full length coding region of PP5 and [α^32 P]-dATP was labeled with DECAprime® DNA Labeling Kit according to the manufacturer's protocol. […] Quantification of hybridization signals was achieved by analysis of the scanned autoradiograms using the NIH Image program (ImagePC).
# The antiproliferative effect of dexamethasone correlates with the presence of wild type p53 and the expression of p21^Waf1/Cip1 mRNA. Referring to FIGS. 1A-1C, the effect of dexamethasone on cell proliferation in p53-defective T-24 human bladder carcinoma, p53-null TR9 human fibroblasts (Webster et al. 1993; Maiyar et al. 1996), and p53 wild-type A549 human lung carcinoma cells was determined by treating cells in log-phase growth with a single dose of 100 nM dexamethasone and counting the number of cells in treated (.cndot.) and untreated (.box-solid.) cultures for six consecutive days following treatment. […] After 24 hours total mRNA was prepared and analyzed for p21 and sgk mRNA levels by Northern analysis. […]
# PP5 mRNA = test: Northern blot analysis of PP5 mRNA expression in A549 cells; details: dexamethasone 0-100 nM, 24 hours
structure (smiles),measurement,setting,value
"C[C@@H]1C[C@H]2[C@@H]3CCC4=CC(=O)C=C[C@]4(C)[C@@]3(F)[C@@H](O)C[C@]2(C)[C@@]1(O)C(=O)CO [dexamethasone, reference compound]",Phosphorylation of p53,p53 phosphorylation,hyperphosphorylation of p53
same,Expression of sgk,"[1]; A549 cells, dexamethasone 0-100 nM",dose-dependent increase
same,Expression of sgk,"[1]; all three cell lines (A549, T-24, TR9), 100 nM",induced the expression
same,Expression of PP5 mRNA,PP5 mRNA,does not appear to change
